Several values for one entry are separate records, joined by “and”; a condition that tells them apart may be missing. Identical values can stand only once.
Assay: Solubility in water at 25° C.
Settings: not given

Q: With `O=C(O)c1ccc(C(=O)O)cc1` [Terephthalic acid, reference compound] as the molecule, how does the Solubility to water read?
A: More than 1 wt %

Assay: Acid dissociation constant by alkali titration in THF/water=6/4
Type: physicochemical
Settings: mixed solvent of THF/water=6/4 by volume at 25° C.
Description: Preferably, the acid dissociation constant of the organic acid in a mixed solvent of THF/water=6/4 by volume at 25° C. is from 2.5 to 7, more preferably from 2.5 to 6.5, even more preferably from 3 to 5.

Q: Which Acid dissociation constant does the source give for `O=C(O)C=Cc1ccccc1` [Cinnamic acid, cinnamic acid, reference compound] here?
A: 4.7

Q: Which Acid dissociation constant does the source give for `O=C(O)CC(O)(CC(=O)O)C(=O)O` [Citric acid, citric acid, reference compound] here?
A: 4.0

Q: For `O=C1NC(=O)N(Cc2ccccc2)C(=O)C1c1ccccc1` (stereo not shown) [Organic acid A], which Acid dissociation constant is on record?
A: 4.0 and 3.0

Q: With `CCC(Oc1ccc(C(C)(C)CC)cc1C(C)(C)CC)C(=O)Nc1cccc(C(=O)O)c1` (stereo not shown) [Organic acid B] as the molecule, how does the Acid dissociation constant read?
A: 6.6

Q: With `Nc1c(F)c(F)c(C(=O)O)c(F)c1F` [Organic acid C] as the molecule, how does the Acid dissociation constant read?
A: 5.0

Q: With `CC(=O)Nc1c(I)cc(I)c(C(=O)O)c1I` [Organic acid D] as the molecule, how does the Acid dissociation constant read?
A: 4.4

Q: For `CCC(C)(C)c1ccc(OCCCC(=O)O)c(C(C)(C)CC)c1` [Organic acid F, reference compound], which Acid dissociation constant is on record?
A: 7.3

Q: Which Acid dissociation constant does the source give for `O=C1NS(=O)(=O)c2ccccc21` [Organic acid H] here?
A: 2.6

Q: With `O=C(O)c1ccc(C(=O)O)cc1` [Terephthalic acid, reference compound] as the molecule, how does the Acid dissociation constant read?
A: 4.5

Source: patent US8859060B2, “Protective film of polarizer, polarizer and liquid crystal display device” (FUJIFILM Corporation, priority 2009, dated 2014)
